# From patent JP2005255641A, “ベンゾフラン誘導体” (Kyowa Hakko Kogyo Co Ltd, priority 2004, dated 2005)
# Target: T1, recombinant human PDE-IV (HSPDE4A) [組み換えヒトPDE−IV (HSPDE4A)] (Homo sapiens, UniProt P27815)
# T1 construct: made in house; host or cells: Sf9 insect cells
# Assay: Recombinant human PDE-IV enzyme inhibition test
# Assay type: biochemical
# Details: drug concentration 1 μmol/L; [3H]cAMP 1 μmol/L; 30 °C, 10-30 min; DMSO 1.7%; read-out: enzyme inhibitory activity
# T1 sequence (P27815 whole entry): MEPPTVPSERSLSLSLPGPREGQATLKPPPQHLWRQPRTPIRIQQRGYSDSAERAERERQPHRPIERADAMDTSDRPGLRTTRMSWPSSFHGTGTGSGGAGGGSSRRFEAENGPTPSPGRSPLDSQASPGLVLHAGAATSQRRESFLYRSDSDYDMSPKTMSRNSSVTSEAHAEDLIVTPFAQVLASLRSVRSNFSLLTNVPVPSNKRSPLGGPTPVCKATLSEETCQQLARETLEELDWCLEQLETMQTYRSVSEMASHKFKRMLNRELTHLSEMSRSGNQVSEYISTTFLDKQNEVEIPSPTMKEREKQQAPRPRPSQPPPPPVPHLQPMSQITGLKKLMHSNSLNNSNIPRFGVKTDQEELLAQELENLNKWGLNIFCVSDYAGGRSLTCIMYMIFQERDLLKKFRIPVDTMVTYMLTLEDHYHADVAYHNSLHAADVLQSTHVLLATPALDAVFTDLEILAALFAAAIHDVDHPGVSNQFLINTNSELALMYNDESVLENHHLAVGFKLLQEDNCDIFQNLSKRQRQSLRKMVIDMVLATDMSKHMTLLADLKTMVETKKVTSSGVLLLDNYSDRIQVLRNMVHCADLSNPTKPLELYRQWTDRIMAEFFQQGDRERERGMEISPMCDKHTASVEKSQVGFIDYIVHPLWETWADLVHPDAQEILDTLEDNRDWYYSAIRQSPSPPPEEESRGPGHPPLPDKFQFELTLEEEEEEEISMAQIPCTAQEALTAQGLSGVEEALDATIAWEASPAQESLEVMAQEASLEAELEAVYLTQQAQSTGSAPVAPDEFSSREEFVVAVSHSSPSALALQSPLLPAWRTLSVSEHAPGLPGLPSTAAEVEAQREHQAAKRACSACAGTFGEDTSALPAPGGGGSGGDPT
row,inhibition [%],Structure (SMILES)
1,≥ 50,"COc1ccc([C@]2(C#N)CC[C@@H](C(=O)O)CC2)c2cc(C#N)oc12 [化合物121, シス−4−シアノ−4−(2−シアノ−7−メトキシベンゾフラン−4−イル)シクロヘキサンカルボン酸]"
2,≥ 50,"COc1ccc([C@]2(C#N)CC[C@@H](C(=O)O)CC2)c2cc(C(=O)c3ccncc3)oc12 [化合物112, シス−4−シアノ−4−(2−イソニコチノイル−7−メトキシベンゾフラン−4−イル)シクロヘキサンカルボン酸]"
3,≥ 50,"COc1ccc([C@]2(C#N)CC[C@@H](C(=O)O)CC2)c2cc(C(C)O)oc12 (some centres unmarked) [化合物108, シス−4−シアノ−4−(2−(1−ヒドロキシエチル)−7−メトキシベンゾフラン−4−イル)シクロヘキサンカルボン酸]"
4,≥ 50,"COc1ccc([C@]2(C#N)CC[C@@H](C(=O)O)CC2)c2cc(C(=O)N3CCC(N4CCCC4)CC3)oc12 [化合物116, シス−4−シアノ−4−(7−メトキシ−2−(4−(ピロリジン−1−イル)ピペリジノカルボニル)ベンゾフラン−4−イル)シクロヘキサンカルボン酸 塩酸塩]"
5,≥ 50,"CCc1cc2c(o1)c(OC)ccc2[C@]1(C#N)CC[C@@H](C(=O)O)CC1 [化合物101, シス−4−シアノ−4−(2−エチル−7−メトキシベンゾフラン−4−イル)シクロヘキサンカルボン酸]"
6,≥ 50,"N#C[C@]1(c2ccc(OC(F)F)c3oc(C4CC4)cc32)CC[C@H](C(=O)O)CC1 [化合物106, シス−4−シアノ−4−(2−シクロプロピル−7−ジフルオロメトキシベンゾフラン−4−イル)シクロヘキサンカルボン酸, 0.2H2O]"
7,≥ 50,"CCc1ccc([C@]2(C#N)CC[C@@H](C(=O)O)CC2)c2oc(C(=O)c3ccccc3)cc12 [化合物127, シス−4−(2−ベンゾイル−4−エチルベンゾフラン−7−イル)−4−シアノシクロヘキサンカルボン酸]"
8,≥ 50,"COc1ccc([C@]2(C#N)CC[C@@H](C(=O)O)CC2)c2cc(C(=O)N3CCN(C)CC3)oc12 [化合物114, シス−4−シアノ−4−(7−メトキシ−2−(4−メチルピペラジン−1−イルカルボニル)ベンゾフラン−4−イル)シクロヘキサンカルボン酸 塩酸塩]"
9,≥ 50,"COc1ccc([C@]2(C#N)CC[C@@H](C(=O)O)CC2)c2cc(C(=O)c3cc[n+]([O-])cc3)oc12 [化合物113, シス−4−シアノ−4−(2−(イソニコチノイル−1−オキシド)−7−メトキシベンゾフラン−4−イル)シクロヘキサンカルボン酸, 0.2H2O]"
10,≥ 50,"COc1ccc([C@]2(C#N)CC[C@@H](C(=O)O)CC2)c2oc(C(=O)c3ccccc3)cc12 [化合物124, シス−4−(2−ベンゾイル−4−メトキシベンゾフラン−7−イル)−4−シアノシクロヘキサンカルボン酸]"
11,≥ 50,"CC1(c2cc3c(o2)c(OC(F)F)ccc3[C@]2(C#N)CC[C@@H](C(=O)O)CC2)CC1 [化合物107, シス−4−シアノ−4−(7−ジフルオロメトキシ−2−(1−メチルシクロプロピル)ベンゾフラン−4−イル)シクロヘキサンカルボン酸]"
12,≥ 50,"COc1ccc([C@]2(C#N)CC[C@@H](C(=O)O)CC2)c2cc(C(=O)N3CCN(CCO)CC3)oc12 [化合物115, シス−4−シアノ−4−(2−(4−(2−ヒドロキシエチル)ピペラジン−1−イルカルボニル)−7−メトキシベンゾフラン−4−イル)シクロヘキサンカルボン酸 塩酸塩]"
13,≥ 50,"COc1ccc([C@]2(C#N)CC[C@@H](C(=O)O)CC2)c2cc(C3(C(F)(F)F)CC3)oc12 [化合物104, シス−4−シアノ−4−(7−メトキシ−2−(1−トリフルオロメチルシクロプロピル)ベンゾフラン−4−イル)シクロヘキサンカルボン酸]"
14,≥ 50,"COc1ccc([C@]2(C#N)CC[C@@H](C(=O)O)CC2)c2cc(C3(C)CC3)oc12 [化合物103, シス−4−シアノ−4−(7−メトキシ−2−(1−メチルシクロプロピル)ベンゾフラン−4−イル)シクロヘキサンカルボン酸]"
15,≥ 50,"COc1ccc([C@]2(C#N)CC[C@@H](C(=O)O)CC2)c2cc(C(=O)c3ccccc3)oc12 [化合物111, シス−4−(2−ベンゾイル−7−メトキシベンゾフラン−4−イル)−4−シアノシクロヘキサンカルボン酸]"
16,≥ 50,"CCc1ccc([C@]2(C#N)CC[C@@H](C(=O)O)CC2)c2cc(C(=O)c3ccccc3)oc12 [化合物123, シス−4−(2−ベンゾイル−7−エチルベンゾフラン−4−イル)−4−シアノシクロヘキサンカルボン酸]"
17,≥ 50,"C=Cc1ccc([C@]2(C#N)CC[C@@H](C(=O)O)CC2)c2oc(C(=O)c3ccccc3)cc12 [化合物126, シス−4−(2−ベンゾイル−4−ビニルベンゾフラン−7−イル)−4−シアノシクロヘキサンカルボン酸]"
18,≥ 50,"C=Cc1ccc([C@]2(C#N)CC[C@@H](C(=O)O)CC2)c2cc(C(=O)c3ccccc3)oc12 [化合物122, シス−4−(2−ベンゾイル−7−ビニルベンゾフラン−4−イル)−4−シアノシクロヘキサンカルボン酸, 0.4H2O]"
19,≥ 50,"COc1ccc([C@]2(C#N)CC[C@@H](C(=O)O)CC2)c2cc(C(C)(C)O)oc12 [化合物110, シス−4−シアノ−4−(2−(1−ヒドロキシ−1−メチルエチル)−7−メトキシベンゾフラン−4−イル)シクロヘキサンカルボン酸]"
20,≥ 50,"COc1ccc([C@]2(C#N)CC[C@@H](C(=O)O)CC2)c2cc(C(C)=O)oc12 [化合物109, シス−4−(2−アセチル−7−メトキシベンゾフラン−4−イル)−4−シアノシクロヘキサンカルボン酸]"

# The next lines start with the molecule.
row,Structure (SMILES),inhibition [%]
1,"CCc1cc2c(C3(C#N)CCN(CC(=O)O)CC3)ccc(OC)c2o1 [化合物76, 2−(4−シアノ−4−(2−エチル−7−メトキシベンゾフラン−4−イル)ピペリジン−1−イル)酢酸, 0.3H2O]",≥ 50
2,"COc1ccc(C2(C#N)CCN(CC(=O)O)CC2)c2cc(C#N)oc12 [化合物99, 2−(4−シアノ−4−(2−シアノ−7−メトキシベンゾフラン−4−イル)ピペリジン−1−イル)酢酸]",≥ 50
3,"COc1ccc(C2(C#N)CCN(CC(=O)O)CC2)c2cc(C(=O)C(C)C)oc12 [化合物91, 2−(4−シアノ−4−(2−イソブチリル−7−メトキシベンゾフラン−4−イル)ピペリジン−1−イル)酢酸]",≥ 50
4,"COc1ccc(C2(C#N)CCN(CC(=O)O)CC2)c2cc(C(C)=O)oc12 [化合物90, 2−(4−(2−アセチル−7−メトキシベンゾフラン−4−イル)−4−シアノピペリジン−1−イル)酢酸]",≥ 50
5,"COc1ccc(C2(C#N)CCN(CC(=O)O)CC2)c2cc(C(=O)c3ccccc3)oc12 [化合物92, 2−(4−(2−ベンゾイル−7−メトキシベンゾフラン−4−イル)−4−シアノピペリジン−1−イル)酢酸]",≥ 50
6,"COC(=O)c1cc2c(C3(C#N)CCN(CC(=O)O)CC3)ccc(OC)c2o1 [化合物93, 2−(4−シアノ−4−(7−メトキシ−2−メトキシカルボニルベンゾフラン−4−イル)ピペリジン−1−イル)酢酸]",≥ 50

# Same assay, conditions: read-out: enzyme inhibitory activity
row,Structure (SMILES),inhibition at 1 µM [%]
1,"COc1ccc(C2(C#N)CCN(CC(=O)O)CC2)c2cc(CC(C)(C)C)oc12 [化合物80, 2−(4−(7−メトキシ−2−ネオペンチルベンゾフラン−4−イル)−4−シアノピペリジン−1−イル)酢酸 塩酸塩]",≥ 50
2,"COc1ccc(C2(C#N)CCN(CC(=O)O)CC2)c2cc(C3CCC3)oc12 [化合物82, 2−(4−シアノ−4−(2−シクロブチル−7−メトキシベンゾフラン−4−イル)ピペリジン−1−イル)酢酸 塩酸塩]",≥ 50
3,"COc1ccc(C2(C#N)CCN(CC(=O)O)CC2)c2cc(Cc3ccccc3)oc12 [化合物81, 2−(4−(2−ベンジル−7−メトキシベンゾフラン−4−イル)−4−シアノピペリジン−1−イル)酢酸 塩酸塩]",≥ 50
4,"COc1ccc(C2(C#N)CCN(CC(=O)O)CC2)c2cc(C(C)C)oc12 [化合物77, 2−(4−シアノ−4−(2−イソプロピル−7−メトキシベンゾフラン−4−イル)ピペリジン−1−イル)酢酸 塩酸塩]",≥ 50
5,"COc1ccc(C2(C#N)CCN(CC(=O)O)CC2)c2cc(CC(C)C)oc12 [化合物79, 2−(4−シアノ−4−(2−イソブチル−7−メトキシベンゾフラン−4−イル)ピペリジン−1−イル)酢酸 塩酸塩]",≥ 50
6,"COc1ccc(C2(C#N)CCN(CC(=O)O)CC2)c2c3c(oc12)CCCC3 [化合物100, 2−(4−シアノ−4−(6−メトキシ−1,2,3,4−テトラヒドロジベンゾフラン−9−イル)ピペリジン−1−イル)酢酸 塩酸塩]",≥ 50
7,"COc1ccc(C2(C#N)CCN(CC(=O)O)CC2)c2cc(C3CC3)oc12 [化合物83, 2−(4−シアノ−4−(2−シクロプロピル−7−メトキシベンゾフラン−4−イル)ピペリジン−1−イル)酢酸 塩酸塩]",≥ 50
8,"COc1ccc(C2(C#N)CCN(CC(=O)O)CC2)c2cc(C3(C)CC3)oc12 [化合物87, 2−(4−シアノ−4−(7−メトキシ−2−(1−メチルシクロプロピル)ベンゾフラン−4−イル)ピペリジン−1−イル)酢酸 塩酸塩]",≥ 50
9,"COc1ccc(C2(C#N)CCN(CC(=O)O)CC2)c2cc(C3(c4ccccc4)CC3)oc12 [化合物88, 2−(4−シアノ−4−(7−メトキシ−2−(1−フェニルシクロプロピル)ベンゾフラン−4−イル)ピペリジン−1−イル)酢酸 塩酸塩]",≥ 50
10,"COc1ccc(C2(C#N)CCN(CC(=O)O)CC2)c2cc(C(C)(C)C)oc12 [化合物78, 2−(4−(2−tert−ブチル−7−メトキシベンゾフラン−4−イル)−4−シアノピペリジン−1−イル)酢酸 塩酸塩]",≥ 50
11,"N#CC1(c2ccc(OC(F)F)c3oc(C4CC4)cc23)CCN(CC(=O)O)CC1 [化合物89, 2−(4−シアノ−4−(2−シクロプロピル−7−ジフルオロメトキシベンゾフラン−4−イル)ピペリジン−1−イル)酢酸 塩酸塩]",≥ 50
12,"COc1ccc(C2(C#N)CCN(CC(=O)O)CC2)c2cc(C3CC3C)oc12 (centres unmarked) [化合物84, 2−(4−シアノ−4−(7−メトキシ−2−(2−メチルシクロプロピル)ベンゾフラン−4−イル)ピペリジン−1−イル)酢酸 塩酸塩]",≥ 50
